In US20040014779A1, “Methods and compositions related to IRM compounds and toll-like recptor pathways” (3M Innovative Properties Company, priority 2001, published 2004):
Where “and” joins values, the source holds several entries; their conditions need not be identical. Equal entries are not always repeated. Where two headings read alike, the source gives them in different places.

How the values were obtained:
[1] = target: T1, human TLR7 (Homo sapiens, UniProt Q9NYK1); experiment: NFkB-luc reporter in HEK293 cells transfected with human TLR7; format: cell-based
T1 construct: expressed in transfected cells; host or cells: HEK293 (pIRES, G-418 selected)
T1 sequence (Q9NYK1 27-1049): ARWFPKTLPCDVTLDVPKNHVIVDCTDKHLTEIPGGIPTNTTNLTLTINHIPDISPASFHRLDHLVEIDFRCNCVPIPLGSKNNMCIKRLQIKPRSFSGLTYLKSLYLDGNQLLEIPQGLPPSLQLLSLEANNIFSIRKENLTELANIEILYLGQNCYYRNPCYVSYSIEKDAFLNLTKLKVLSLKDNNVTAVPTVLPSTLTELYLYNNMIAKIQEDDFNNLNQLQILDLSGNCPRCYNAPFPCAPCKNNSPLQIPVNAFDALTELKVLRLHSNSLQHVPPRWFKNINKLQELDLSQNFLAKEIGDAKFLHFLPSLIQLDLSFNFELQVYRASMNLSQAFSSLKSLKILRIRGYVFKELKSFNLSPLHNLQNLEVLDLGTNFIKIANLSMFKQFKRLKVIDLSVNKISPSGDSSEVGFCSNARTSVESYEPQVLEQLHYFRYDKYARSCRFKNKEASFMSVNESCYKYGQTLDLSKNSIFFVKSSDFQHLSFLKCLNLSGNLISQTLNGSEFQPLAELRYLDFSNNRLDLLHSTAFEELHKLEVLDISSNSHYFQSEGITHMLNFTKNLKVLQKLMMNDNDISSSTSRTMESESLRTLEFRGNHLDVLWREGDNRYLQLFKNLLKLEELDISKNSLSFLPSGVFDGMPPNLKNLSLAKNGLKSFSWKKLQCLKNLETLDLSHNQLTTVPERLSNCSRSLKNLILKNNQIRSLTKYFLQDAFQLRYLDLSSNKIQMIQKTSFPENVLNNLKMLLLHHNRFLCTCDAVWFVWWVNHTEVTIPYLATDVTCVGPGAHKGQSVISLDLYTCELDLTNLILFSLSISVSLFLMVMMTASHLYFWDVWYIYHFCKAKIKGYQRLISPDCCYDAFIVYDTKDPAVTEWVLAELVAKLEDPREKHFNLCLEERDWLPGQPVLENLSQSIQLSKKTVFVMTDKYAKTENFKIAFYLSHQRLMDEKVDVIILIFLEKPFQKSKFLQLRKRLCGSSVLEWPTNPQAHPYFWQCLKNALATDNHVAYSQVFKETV
Description: (§1) HEK 293 cells were cultured in Minimum Essential Medium (MEM) with 2 mM L-glutamine and Earle's Balanced Salt Solution (Invitrogen Corp., Rockville, Md.) adjusted to contain 1.5 g/L sodium bicarbonate, 0.1 mM non-essential amino acids, and 1.0 mM sodium pyruvate, 90%; heat-inactivated fetal calf serum, 10%. The cells were incubated at 37° C., 8% CO2.
(§2) The cells were co-transfected with human TLR7 or Empty Vector control pIRES (BD Biosciences Clontech, Palo Alto, Calif.) along with NFkB-luc reporter (Stratagene, La Jolla, Calif.) in a 10:1 ratio with Fugene 6 transfection reagent (Roche Diagnostics Corp., Indianapolis, Ind.) following the manufacturer's instructions.
(§3) The cells were stimulated with 1 μL of IRM compounds at 1 mM in DMSO (final concentration of 10 μM) or 1 μL DMSO as a control. The plates were then incubated an additional 16 hours at 37° C., 5% CO2. The luciferase signal was read using the LucLite kit (Packard Instrument Co., Meriden, Conn.). The luminescence was measured on the Topcount NXT (Packard Instrument Co., Meriden, Conn.).

[2] = tested on: NF-κB; experiment: NFkB-luc reporter in HEK293 cells with empty vector control; format: cell-based, human; settings: luciferase signal; for Fold Increase Over DMSO Control, HEK 293 Vector: 10 μM, 16 hours; for fold induction at 10 µM: Homo sapiens, HEK293, 16 h, read-out: Fold Increase Over DMSO Control, HEK 293 Vector
Description: as §1, §2, §3

[3] = target: T2, TLR6 (Homo sapiens, UniProt Q9Y2C9); experiment: Anti-TLR6 antibody inhibition of TNF-α production by human PBMC; format: cell-based; settings: preincubation with anti-TLR6 antibodies; compared with LPS
T2 construct: Peripheral blood mononuclear cells (PBMCS) were isolated; endogenous in cells; host or cells: human PBMC from healthy volunteers
T2 sequence (Q9Y2C9 32-796): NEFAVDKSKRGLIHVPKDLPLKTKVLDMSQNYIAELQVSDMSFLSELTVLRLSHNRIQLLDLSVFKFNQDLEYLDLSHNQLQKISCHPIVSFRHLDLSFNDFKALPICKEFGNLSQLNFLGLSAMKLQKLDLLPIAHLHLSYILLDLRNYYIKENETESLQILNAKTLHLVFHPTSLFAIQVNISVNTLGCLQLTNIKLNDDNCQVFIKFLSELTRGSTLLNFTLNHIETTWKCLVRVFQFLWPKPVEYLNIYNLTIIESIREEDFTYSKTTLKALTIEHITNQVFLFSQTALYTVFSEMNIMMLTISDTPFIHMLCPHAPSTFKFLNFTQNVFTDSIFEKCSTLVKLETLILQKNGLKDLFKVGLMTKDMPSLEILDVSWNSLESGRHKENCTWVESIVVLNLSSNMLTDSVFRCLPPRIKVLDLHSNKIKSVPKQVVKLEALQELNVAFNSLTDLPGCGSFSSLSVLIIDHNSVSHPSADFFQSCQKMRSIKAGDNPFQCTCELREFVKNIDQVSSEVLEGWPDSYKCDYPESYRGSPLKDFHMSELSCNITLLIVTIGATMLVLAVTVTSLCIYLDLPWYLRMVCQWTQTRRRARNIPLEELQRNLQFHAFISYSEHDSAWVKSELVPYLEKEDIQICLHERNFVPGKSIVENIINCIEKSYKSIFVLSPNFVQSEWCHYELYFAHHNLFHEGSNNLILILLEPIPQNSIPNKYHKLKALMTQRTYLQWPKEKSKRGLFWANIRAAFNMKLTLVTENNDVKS
T2 sequence (O60603 21-784 partner): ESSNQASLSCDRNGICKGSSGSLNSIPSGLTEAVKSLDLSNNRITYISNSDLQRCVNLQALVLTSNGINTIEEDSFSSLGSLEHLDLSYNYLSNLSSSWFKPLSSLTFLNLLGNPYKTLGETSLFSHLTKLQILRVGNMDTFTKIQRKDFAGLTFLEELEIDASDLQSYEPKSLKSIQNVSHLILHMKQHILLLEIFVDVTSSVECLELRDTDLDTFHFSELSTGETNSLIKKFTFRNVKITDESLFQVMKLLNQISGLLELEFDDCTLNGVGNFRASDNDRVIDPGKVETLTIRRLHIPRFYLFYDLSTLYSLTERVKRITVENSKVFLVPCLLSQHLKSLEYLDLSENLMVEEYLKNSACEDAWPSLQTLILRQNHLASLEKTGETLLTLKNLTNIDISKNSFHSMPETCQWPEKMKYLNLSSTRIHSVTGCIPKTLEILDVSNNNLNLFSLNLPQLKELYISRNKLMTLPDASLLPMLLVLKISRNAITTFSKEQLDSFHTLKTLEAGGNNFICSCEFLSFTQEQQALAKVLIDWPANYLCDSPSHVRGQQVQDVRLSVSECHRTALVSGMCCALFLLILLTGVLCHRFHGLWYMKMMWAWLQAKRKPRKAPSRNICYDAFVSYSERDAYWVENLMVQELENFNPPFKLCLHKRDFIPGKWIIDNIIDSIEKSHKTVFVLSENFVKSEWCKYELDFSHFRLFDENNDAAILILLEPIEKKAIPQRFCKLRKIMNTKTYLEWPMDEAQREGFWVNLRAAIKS
Description: Peripheral blood mononuclear cells (PBMCS) were isolated with the Histopaque HybriMax—1077 density gradient (Sigma Chemical Co., St. Louis, Mo.) from healthy human volunteers after obtaining informed consent.
PBMC were resuspended in cRPMI at a concentration of 10^6 cells/ml. 100 μl of cells (10^5 cells) were then added to individual wells of a 96 well U-bottom plate (BD Biosciences Discovery Labware, Bedford, Mass.). Solutions containing cRPMI with 40 μg/ml of the affinity purified anti-TLR6 polyclonal antibody were prepared. 50 μl of the antibody solution was added to cells and incubated for 30 minutes. […] Cells were incubated for 18 hours at 37° C. in an atmosphere of 5% CO2/95% air. Supernatants were collected and frozen at −20° C. for cytokine analysis. The data are presented as % inhibition relative to control.
Data shown are representative of six independent experiments.

[4] = luciferase signal, 10 μM, 16 hours, TLR7 cells

Row | Compound | Fold Increase Over DMSO Control, HEK293 TLR7 [1, 4] | Fold Increase Over DMSO Control, HEK 293 Vector [2] [fold] | fold induction at 10 µM [2] | Effect of anti-TLR6 antibodies on stimulus-induced TNF-α production (in words) [3] | Fold Increase Over DMSO Control, HEK293 TLR7 [1] [fold]
1 | CCCCc1nc2c(N)nc3cccnc3c2s1 [IRM 11, 2-butyl[1,3]thiazolol[4,5-c][1,5]naphthyridin-4-amine] | 1.06 fold | 1.35 | – | – | –
2 | Nc1nc2ccccc2c2c1nc1n2CCCC1 [IRM 13, 8,9,10,11-tetrahydropyrido[1′,2′:1,2]imidazol[4,5-c]quinolin-6-amine] | 2.39 fold | 1.20 | – | – | –
3 | COCCc1nc2c(N)nc3ccccc3c2n1CCCCNC(=O)c1ccc(-n2cccc2)nc1 [IRM 14, N^3-{4-[4-amino-2-(2-methoxyethyl)-1H-imidazo[4,5-c]quinolin-1-yl]butyl}-6-(1H-1-pyrrolyl)nicotinamide] | 1.37 fold | – | 1.31 | – | –
4 | CCCCc1nc2c(N)nc(C)c(C)c2n1CCCCNS(C)(=O)=O [IRM 17, N-[4-(4-amino-2-butyl-6,7-dimethyl-1H-imidazo[4,5-c]pyridin-1-yl)butyl]methanesulfonamide] | 2.79 fold and 2.71 fold | – | 0.99 | – | –
5 | CCCCc1nc2c(N)nc3ccccc3c2n1CCNS(C)(=O)=O [IRM 15, N-[2-(4-amino-2-butyl-1H-imidazo[4,5-c]quinolin-1-yl)ethyl]methanesulfonamide] | 1.88 fold | – | 1.04 | – | –
6 | CCCCc1nc2c(N)nc3ncccc3c2n1CC(C)C [IRM 5, 2-butyl-1-(2-methylpropyl)-1H-imidazo[4,5-c][1,8]naphthyridin-4-amine] | 1.13 fold | – | 1.21 | – | –
7 | C[C@H](c1ccccc1)n1cnc2c(N)nc3ccccc3c21 [IRM 10, 1-[R(+)-1-phenylethyl]-1H-imidazo[4,5-c]quinolin-4-amine] | 2.55 fold | 1.10 | – | – | –
8 | Peptidoglycan | – | – | – | inhibited by the antibodies to a greater extent | –
9 | Nc1nc2ccccc2c2c1ncn2CCOCCCc1cccnc1 [IRM 4, 1-{2-[3-(3-pyridyl)propoxy]ethyl}-1H-imidazo[4,5-c]quinolin-4-amine] | 4.06 fold | – | 1 | – | –
10 | CCOCc1nc2c(N)nc3c(c2n1CC(C)(C)O)CCCC3 [IRM 9, 4-amino-2-ethoxymethyl-α,α-dimethyl-6,7,8,9-tetrahydro-1H-imidazol[4,5-c]quinoline-1-ethanol] | – | 0.81 | – | – | 4.67
11 | CCCCc1nc2c(N)nc3c(c2n1CC(C)C)NCCC3 [IRM 8, 2-butyl-6,7,8,9-tetrahydro-1-(2-methylpropyl)-1H-imidazo[4,5-c][1,5]naphthyridin-4-amine] | 4.59 fold | – | 0.91 | – | –
12 | CCCCc1nc2c(N)nc3cnccc3c2n1CC(C)C [IRM 6, 2-butyl-1-(2-methylpropyl)-1H-imidazo[4,5-c][1,7]naphthyridin-4-amine] | 1.25 fold | – | 0.95 | – | –
13 | CCCCc1nc2c(N)nc3cccnc3c2n1CC(C)C [IRM 7, 2-butyl-1-(2-methylpropyl)-1H-imidazo[4,5-c][1,5]naphthyridin-4-amine] | 3.06 fold | – | 1.3 | – | –
14 | COCCc1nc2c(N)nc3ccccc3c2n1CCCCNC(=O)N1CCOCC1 [IRM 16, N-{4-[4-amino-2-(2-methoxyethyl)-1H-imidazo[4,5-c]quinolin-1-yl]butyl}morpholine-4-carboxamide] | 1.51 fold | – | 0.98 | – | –
15 | Cc1nc2c(N)nc3ccccc3c2n1CC(C)(C)O.Cl [IRM 1, 4-amino-α,α,2-trimethyl-1H-imidazo[4,5-c]quinoline-1-ethanol hydrochloride] | 3.75 fold | – | 0.86 | – | –
16 | CCCCc1nc2c(N)nc3ccccc3c2n1CCCCNS(C)(=O)=O [IRM 12, N-[4-(4-amino-2-butyl-1H-imidazo[4,5-c]quinolin-1-yl)butyl]methanesulfonamide] | 15.33 fold | – | 1.33 | – | –
